Test results reported in ChEMBL document CHEMBL1201862, “PubChem BioAssay data set” (2004).
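Each compound was tested at five concentrations against cells in 96-well plates for 48 hours. At the GI50, growth is halved.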 The source made the active and inactive calls. Rule as the data show it: active = GI50 up to about 1.1 µM and inactive = higher.

Columns and labels:
Test in all cases: growth of human tumour cells (NCI), 48 h
MDA-MB-435 = test system: MDA-MB-435
HCT-116 = test system: HCT-116
SF-295 = test system: SF-295
786-0 = test system: 786-0
NCI-H226 = test system: NCI-H226
NCI-H522 = test system: NCI-H522
MCF7 = test system: MCF7
CAKI-1 = test system: CAKI-1
SK-MEL-2 = test system: SK-MEL-2
SK-MEL-28 = test system: SK-MEL-28
NCI/ADR-RES = test system: NCI/ADR-RES
OVCAR-3 = test system: OVCAR-3
SK-OV-3 = test system: SK-OV-3
IGROV-1 = test system: IGROV-1
SNB-19 = test system: SNB-19
HOP-92 = test system: HOP-92
KM12 = test system: KM12
OVCAR-4 = test system: OVCAR-4
DU-145 = test system: DU-145

Measured: GI50

O=[N+]([O-])c1ccccc1OCCOc1ccccc1[N+](=O)[O-]
inactive: MDA-MB-435 > 100 µM | HCT-116 > 100 µM | SF-295 > 100 µM | 786-0 > 100 µM | NCI-H226 > 100 µM | NCI-H522 > 100 µM | MCF7 > 100 µM | CAKI-1 > 100 µM | SK-MEL-2 > 100 µM | SK-MEL-28 > 100 µM | NCI/ADR-RES > 100 µM | OVCAR-3 > 100 µM | SK-OV-3 > 100 µM | IGROV-1 > 100 µM | SNB-19 > 100 µM | HOP-92 71.8 µM | KM12 > 100 µM | OVCAR-4 > 100 µM | DU-145 > 100 µM

O=C1C=C(Nc2nc(O)cc(C(=O)O)n2)c2ccccc2C1=O
inactive: MDA-MB-435 37.8 µM | HCT-116 > 100 µM | SF-295 > 100 µM | 786-0 > 100 µM | NCI-H226 > 100 µM | NCI-H522 > 100 µM | MCF7 > 100 µM | CAKI-1 > 100 µM | SK-MEL-2 > 100 µM | SK-MEL-28 > 100 µM | NCI/ADR-RES > 100 µM | OVCAR-3 > 100 µM | SK-OV-3 > 100 µM | IGROV-1 > 100 µM | SNB-19 > 100 µM | HOP-92 > 100 µM | KM12 > 100 µM | OVCAR-4 > 100 µM | DU-145 > 100 µM

O=C(/C=C/c1ccccc1)c1cc(Br)ccc1O
inactive: MDA-MB-435 15.6 µM | HCT-116 16.3 µM | SF-295 16.9 µM | 786-0 13.9 µM | NCI-H226 12.9 µM | NCI-H522 12.5 µM | MCF7 10.8 µM | CAKI-1 15.8 µM | SK-MEL-2 21.4 µM | SK-MEL-28 15.5 µM | NCI/ADR-RES 17.5 µM | OVCAR-3 18 µM | SK-OV-3 20 µM | IGROV-1 11.5 µM | SNB-19 17.1 µM | HOP-92 3.15 µM | KM12 12 µM | OVCAR-4 15.1 µM | DU-145 14.9 µM

CC(=O)O[C@@H]1[C@H]2[C@@H](OC(=O)c3ccccc3)[C@@H](C)C[C@]2(O)[C@H](OC(C)=O)[C@@]2(C)[C@@H]3CC(C)(C)C(=O)[C@]3(OC(C)=O)C[C@@]12C
inactive: MDA-MB-435 13.8 µM | HCT-116 > 25 µM | SF-295 7 µM | 786-0 17.1 µM | NCI-H226 > 25 µM | NCI-H522 > 25 µM | MCF7 > 25 µM | CAKI-1 13.4 µM | SK-MEL-2 > 25 µM | NCI/ADR-RES > 25 µM | OVCAR-3 > 25 µM | SK-OV-3 > 25 µM | IGROV-1 > 25 µM | SNB-19 > 25 µM | HOP-92 8.24 µM | KM12 > 25 µM | OVCAR-4 > 25 µM | DU-145 > 25 µM

CCOC(=O)CCc1cccc2c1oc1c(CCNC(=O)OCC3c4ccccc4-c4ccccc43)cccc12
inactive: MDA-MB-435 > 100 µM | HCT-116 79.3 µM | SF-295 19.6 µM | 786-0 37.2 µM | NCI-H226 86.7 µM | NCI-H522 37.9 µM | MCF7 36.4 µM | CAKI-1 12.9 µM | SK-MEL-2 76.6 µM | SK-MEL-28 > 100 µM | NCI/ADR-RES 58.6 µM | OVCAR-3 49 µM | SK-OV-3 49 µM | IGROV-1 21.3 µM | SNB-19 19.9 µM | HOP-92 23.1 µM | KM12 > 100 µM | OVCAR-4 > 100 µM | DU-145 > 100 µM

O=[N+]([O-])c1cc2ccc(N(CCO)CCO)nc2nc1N(CCO)CCO
inactive: MDA-MB-435 > 100 µM | HCT-116 > 100 µM | SF-295 > 100 µM | 786-0 > 100 µM | NCI-H226 > 100 µM | NCI-H522 > 100 µM | MCF7 > 100 µM | CAKI-1 > 100 µM | SK-MEL-2 > 100 µM | SK-MEL-28 > 100 µM | NCI/ADR-RES > 100 µM | OVCAR-3 > 100 µM | SK-OV-3 > 100 µM | IGROV-1 > 100 µM | SNB-19 > 100 µM | HOP-92 > 100 µM | KM12 > 100 µM | OVCAR-4 > 100 µM | DU-145 > 100 µM

Cc1[nH]nc(C(=O)N/N=C/c2cccs2)c1/N=N\N(C)C
inactive: MDA-MB-435 23.9 µM | HCT-116 11 µM | SF-295 15.2 µM | 786-0 13.6 µM | NCI-H226 23.1 µM | NCI-H522 11.2 µM | MCF7 3.94 µM | CAKI-1 5.78 µM | SK-MEL-2 35.2 µM | NCI/ADR-RES 21.1 µM | OVCAR-3 22.4 µM | SK-OV-3 19.8 µM | IGROV-1 11.1 µM | SNB-19 8.38 µM | HOP-92 16.3 µM | KM12 24.1 µM | OVCAR-4 10.5 µM | DU-145 9.53 µM

CC(C)=CCC[C@@H](C)c1c2nc3ccccc3sc-2c(C)c(=O)c1O
inactive: MDA-MB-435 10.6 µM | HCT-116 3.37 µM | SF-295 3.78 µM | 786-0 4.9 µM | NCI-H226 3.74 µM | NCI-H522 1.82 µM | MCF7 8.3 µM | CAKI-1 2.82 µM | SK-MEL-2 9.71 µM | SK-MEL-28 14.6 µM | NCI/ADR-RES 2.05 µM | OVCAR-3 9.35 µM | SK-OV-3 7.74 µM | IGROV-1 3.44 µM | SNB-19 38.5 µM | HOP-92 18.9 µM | KM12 4.6 µM | OVCAR-4 6.43 µM | DU-145 17.5 µM

C[C@H](CCC1=NCCN1)[C@H]1CC[C@H]2[C@@H]3[C@H](O)C[C@@H]4C[C@H](O)CC[C@]4(C)[C@H]3CC[C@]12C
inactive: MDA-MB-435 13.7 µM | HCT-116 13.6 µM | SF-295 15.5 µM | 786-0 14.6 µM | NCI-H226 15 µM | NCI-H522 14.7 µM | MCF7 15.2 µM | CAKI-1 24 µM | SK-MEL-2 16.3 µM | SK-MEL-28 14.2 µM | NCI/ADR-RES 28.8 µM | OVCAR-3 13.7 µM | SK-OV-3 19.1 µM | IGROV-1 11.7 µM | SNB-19 13.4 µM | HOP-92 8.89 µM | KM12 14.6 µM | OVCAR-4 14.9 µM | DU-145 14.3 µM

O=C(C(=O)n1ccc2ccccc21)n1ccc2ccccc21
inactive: MDA-MB-435 > 100 µM | HCT-116 > 100 µM | SF-295 37.6 µM | 786-0 91.6 µM | NCI-H226 > 100 µM | NCI-H522 49.2 µM | MCF7 > 100 µM | CAKI-1 > 100 µM | SK-MEL-2 > 100 µM | SK-MEL-28 > 100 µM | NCI/ADR-RES > 100 µM | OVCAR-3 > 100 µM | SK-OV-3 48.3 µM | IGROV-1 2.12 µM | SNB-19 54.6 µM | HOP-92 34 µM | OVCAR-4 29 µM | DU-145 > 100 µM

CCCCOP(=O)(OCCCC)/C(C#N)=C/c1ccc(C)o1
inactive: MDA-MB-435 32.6 µM | HCT-116 36.9 µM | SF-295 43.7 µM | 786-0 37.1 µM | NCI-H226 28 µM | NCI-H522 58.9 µM | MCF7 22.6 µM | CAKI-1 60.5 µM | SK-MEL-2 31 µM | SK-MEL-28 60.8 µM | NCI/ADR-RES 15.5 µM | OVCAR-3 14.5 µM | SK-OV-3 81.5 µM | IGROV-1 > 100 µM | SNB-19 > 100 µM | HOP-92 29.6 µM | KM12 42.4 µM | OVCAR-4 46.8 µM | DU-145 > 100 µM

CCC1=CC2Cc3nc4cc(Cl)ccc4c(N)c3C(C1)C2 (stereo not drawn)
inactive: MDA-MB-435 2.94 µM | HCT-116 2.54 µM | SF-295 4.45 µM | 786-0 5.04 µM | NCI-H226 1.48 µM | NCI-H522 7.5 µM | MCF7 3.25 µM | CAKI-1 2.26 µM | SK-MEL-2 5.45 µM | SK-MEL-28 2.86 µM | NCI/ADR-RES 8.3 µM | OVCAR-3 7.29 µM | SK-OV-3 12.1 µM | IGROV-1 2.72 µM | SNB-19 9.12 µM | HOP-92 1.91 µM | KM12 5.78 µM | OVCAR-4 3.59 µM | DU-145 11.2 µM

CC(=O)OCC1OC(c2c(OC(C)=O)cc(C)c3c(=O)cc(/C(C(C)=O)=C(\C)O)oc23)C(OC(C)=O)C(OC(C)=O)C1OC(C)=O (stereo not drawn)
inactive: MDA-MB-435 > 100 µM | HCT-116 > 100 µM | SF-295 > 100 µM | 786-0 > 100 µM | NCI-H226 > 100 µM | NCI-H522 > 100 µM | MCF7 > 100 µM | CAKI-1 > 100 µM | SK-MEL-2 > 100 µM | SK-MEL-28 > 100 µM | NCI/ADR-RES > 100 µM | OVCAR-3 > 100 µM | SK-OV-3 > 100 µM | IGROV-1 > 100 µM | SNB-19 > 100 µM | HOP-92 > 100 µM | KM12 > 100 µM | OVCAR-4 > 100 µM | DU-145 > 100 µM

O=C(O)C1=C/C(=C(/c2ccccc2)c2cc(C(=O)O)c(O)c3ccccc23)c2ccccc2C1=O
inactive: MDA-MB-435 > 100 µM | HCT-116 > 100 µM | SF-295 > 100 µM | 786-0 > 100 µM | NCI-H226 > 100 µM | NCI-H522 > 100 µM | MCF7 > 100 µM | CAKI-1 > 100 µM | SK-MEL-2 > 100 µM | SK-MEL-28 > 100 µM | NCI/ADR-RES > 100 µM | OVCAR-3 > 100 µM | SK-OV-3 > 100 µM | IGROV-1 > 100 µM | SNB-19 > 100 µM | HOP-92 > 100 µM | KM12 > 100 µM | OVCAR-4 > 100 µM | DU-145 > 100 µM
